# Experimental data reported in the supplement of paper PMC10307832.
# Compound: CO[C@@H]1[C@H](N(C)C(=O)c2ccccc2)C[C@H]2O[C@]1(C)n1c3ccccc3c3c4c(c5c6ccccc6n2c5c31)C(=O)NC4 [Midostaurin] + COc1cccc2cc(-c3nc([C@H]4CC[C@H](C(=O)O)CC4)n4ncnc(N)c34)[nH]c12 [OSI-027] (partner 0.5 µM)
# Test: relative viability (nuclei count vs DMSO), 5 days (fraction); higher = more cells survive
# Conditions: first compound 0.01 µM
# Outline: (§1)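 Cells from lung cancer lines were seeded into 1536-well plates and, one day later, dosed by pin tool. Treatments were either a single drug or a fixed dose of an anchor drug with five library-drug doses (not always all listed) in √10 steps. After 5 days, nuclei were stained in a one-step fixation (final 0.05% Triton X-100, 1% formaldehyde, 1 ug/ml Hoechst) and counted on 4× images, and relative viability is the treated-to-vehicle nuclei ratio, as the median of duplicate plates.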
row,Cell Line,relative viability
1,NCI-H2023,0.426
2,HCC-15,0.758
3,PC-14,0.92
4,EKVX,0.786
5,LC-2-ad,0.792
6,NCI-H1944,0.385
7,NCI-H1975,0.784
8,RERF-LC-KJ,0.622
9,ABC-1,0.488
10,NCI-H358,0.894
11,NCI-H650,0.439
12,PC-3 [JPC-3],0.718

# Same assay, conditions: first compound 0.03162 µM
row,Cell Line,relative viability
1,NCI-H2023,0.385
2,HCC-15,0.624
3,PC-14,0.811
4,EKVX,0.616
5,LC-2-ad,0.791
6,NCI-H1944,0.399
7,NCI-H1975,0.838
8,RERF-LC-KJ,0.614
9,ABC-1,0.536
10,NCI-H358,0.73
11,NCI-H650,0.455
12,PC-3 [JPC-3],0.579

# Same assay, conditions: first compound 0.1 µM
row,Cell Line,relative viability
1,NCI-H2023,0.41
2,HCC-15,0.698
3,PC-14,0.875
4,EKVX,0.674
5,LC-2-ad,0.898
6,NCI-H1944,0.416
7,NCI-H1975,0.752
8,RERF-LC-KJ,0.673
9,ABC-1,0.574
10,NCI-H358,0.788
11,NCI-H650,0.507
12,PC-3 [JPC-3],0.78

# Same assay, conditions: first compound 0.3162 µM
row,Cell Line,relative viability
1,NCI-H2023,0.302
2,HCC-15,0.717
3,PC-14,1.02
4,EKVX,0.657
5,LC-2-ad,0.847
6,NCI-H1944,0.411
7,NCI-H1975,0.607
8,RERF-LC-KJ,0.663
9,ABC-1,0.521
10,NCI-H358,0.776
11,NCI-H650,0.456
12,PC-3 [JPC-3],0.806

# Compound: CO[C@@H]1[C@H](N(C)C(=O)c2ccccc2)C[C@H]2O[C@]1(C)n1c3ccccc3c3c4c(c5c6ccccc6n2c5c31)C(=O)NC4 [Midostaurin] + C[C@@H](Oc1cc(-c2cnn(C3CCNCC3)c2)cnc1N)c1c(Cl)ccc(F)c1Cl [Crizotinib] (partner 1 µM)
# Test: as above
# Conditions: first compound 0.01 µM
# Outline: as §1
row,Cell Line,relative viability
1,NCI-H2023,0.642
2,HCC-15,0.842
3,PC-14,0.903
4,EKVX,1.07
5,LC-2-ad,0.469
6,NCI-H1944,1.07
7,NCI-H1975,1
8,RERF-LC-KJ,0.892
9,ABC-1,0.981
10,NCI-H358,0.528
11,NCI-H650,0.574
12,PC-3 [JPC-3],0.99

# Same assay, conditions: first compound 0.03162 µM
row,Cell Line,relative viability
1,NCI-H2023,0.613
2,HCC-15,0.829
3,PC-14,0.882
4,EKVX,0.988
5,LC-2-ad,0.428
6,NCI-H1944,1.08
7,NCI-H1975,0.963
8,RERF-LC-KJ,0.764
9,ABC-1,1.28
10,NCI-H358,0.596
11,NCI-H650,0.748
12,PC-3 [JPC-3],0.824

# Same assay, conditions: first compound 0.1 µM
row,Cell Line,relative viability
1,NCI-H2023,0.584
2,HCC-15,0.841
3,PC-14,0.832
4,EKVX,0.868
5,LC-2-ad,0.485
6,NCI-H1944,1
7,NCI-H1975,0.863
8,RERF-LC-KJ,0.813
9,ABC-1,1.12
10,NCI-H358,0.563
11,NCI-H650,0.773
12,PC-3 [JPC-3],0.966

# Same assay, conditions: first compound 0.3162 µM
row,Cell Line,relative viability
1,NCI-H2023,0.499
2,HCC-15,0.847
3,PC-14,0.907
4,EKVX,0.929
5,LC-2-ad,0.483
6,NCI-H1944,1.1
7,NCI-H1975,0.623
8,RERF-LC-KJ,0.811
9,ABC-1,0.582
10,NCI-H358,0.292
11,NCI-H650,0.444
12,PC-3 [JPC-3],0.943

# Compound: CO[C@@H]1[C@H](N(C)C(=O)c2ccccc2)C[C@H]2O[C@]1(C)n1c3ccccc3c3c4c(c5c6ccccc6n2c5c31)C(=O)NC4 [Midostaurin] + CS(=O)(=O)CCNCc1ccc(-c2ccc3ncnc(Nc4ccc(OCc5cccc(F)c5)c(Cl)c4)c3c2)o1 [Lapatinib] (partner 2 µM)
# Test: as above
# Conditions: first compound 0.01 µM
# Outline: as §1
row,Cell Line,relative viability
1,NCI-H2023,0.851
2,HCC-15,0.85
3,PC-14,0.345
4,EKVX,0.214
5,LC-2-ad,0.989
6,NCI-H1944,0.783
7,NCI-H1975,0.82
8,RERF-LC-KJ,0.881
9,ABC-1,1.05
10,NCI-H358,0.582
11,NCI-H650,0.838
12,PC-3 [JPC-3],0.432

# Same assay, conditions: first compound 0.03162 µM
row,Cell Line,relative viability
1,NCI-H2023,0.621
2,HCC-15,0.776
3,PC-14,0.289
4,EKVX,0.127
5,LC-2-ad,0.956
6,NCI-H1944,0.794
7,NCI-H1975,0.893
8,RERF-LC-KJ,0.91
9,ABC-1,1.29
10,NCI-H358,0.391
11,NCI-H650,0.988
12,PC-3 [JPC-3],0.439
